Measurements as given in patent publication US11649237B2, “Substituted imidazo[1,5-a]pyrazines for IRE1 inhibition” (Optikira LLC, priority 2017, dated 2023).

These compounds were tested on XBP-1 splicing in ARPE-19 cells or apoptosis of INS-1 cells expressing mIRE-1 (assay: Cellular assay (XBP1 splicing assay or apoptosis assay)). Conditions: data are for the XBP1 splicing assay or the apoptosis assay (not specified per compound).
Type: cell-based
Procedure: ARPE-19 cells stably expressing XBP-1 (a.a. 1-376) with nano-luciferase gene sequence linked so it is in frame when XBP-1 is spliced, were cultured in F12 media, 10% FBS, 0.044% sodium bicarbonate, 150 μg/ml hygromycin B and seeded for assays at 5,000 cells in 384 well plates in culture media without hygromycin B and incubated at 37° C./5% CO2. […] After further incubation of 30 minutes thapsigargin was added (final concentration 150 nM) and then another 4 hour incubation. A NanoLuc luciferase assay (Promega) was used according to the manufacturer's instructions to detect the luciferase and luminescence measured on a luminometer (EnVision, PerkinElmer).
Doxycycline (final concentration 100 nM) was added and plates incubated for a further 72 hours. To determine the proportion of apoptotic cells Hoechst 33342 (final concentration 10 μg/mL) was added, then after 30 minutes incubation cells imaged and analyzed on an InCell high content imager.
Work on CNC1CC=C(c2cnc(N)c3c(-c4cccc5c(CC(=O)Nc6cccc(F)c6)cccc45)nc(C(C)C)n23)CC1 (centres unmarked) [Example 81, 2-(5-(8-amino-3-isopropyl-5-(4-(methylamino)cyclohex-1-en-1-yl)imidazo[1,5-a]pyrazin-1-yl)naphthalen-1-yl)-N-(3-fluorophenyl)acetamide] yielded an IC50 of 290 nM.
Cc1cccc2nc(Cc3ccc(-c4nc(C(C)C)n5c(CN6CCNCC6)cnc(N)c45)c4ccccc34)[nH]c12 [Example 37, 3-isopropyl-1-(4-((7-methyl-1H-benzo[d]imidazol-2-yl)methyl)naphthalen-1-yl)-5-(piperazin-1-ylmethyl)imidazo[1,5-a]pyrazin-8-amine] was tested, and the IC50 was 320 nM.
For CNC1CC=C(c2cnc(N)c3c(-c4ccc(NC(=O)Nc5ccc6c(c5)OCCO6)cc4F)nc(C(C)C)n23)CC1 (centres unmarked) [Example 125, 1-(4-(8-amino-3-isopropyl-5-(4-(methylamino)cyclohex-1-en-1-yl)imidazo[1,5-a]pyrazin-1-yl)-3-fluorophenyl)-3-(2,3-dihydrobenzo[b][1,4]dioxin-6-yl)urea], the IC50 was 300 nM.
Compound CNC1CC=C(c2cnc(N)c3c(-c4ccc(NC(=O)Nc5ccc(OC)c(OC)c5)c5ccccc45)nc(C(C)C)n23)CC1 (centres unmarked) [Example 143, 1-(4-(8-amino-3-isopropyl-5-(4-(methylamino)cyclohex-1-en-1-yl)imidazo[1,5-a]pyrazin-1-yl)naphthalen-1-yl)-3-(3,4-dimethoxyphenyl)urea] has an IC50 of 210 nM.
In the case of CCc1nc(-c2ccc(NC(=O)Nc3cccc(F)c3)cc2F)c2c(N)ncc(C3=CCC(NC)CC3)n12 (centres unmarked) [Example 126, 1-(4-(8-amino-3-ethyl-5-(4-(methylamino)cyclohex-1-en-1-yl)imidazo[1,5-a]pyrazin-1-yl)-3-fluorophenyl)-3-(3-fluorophenyl)urea], the IC50 is reported as 450 nM.
Compound CNC1CC=C(c2cnc(N)c3c(-c4ccc(CC(=O)Nc5ccccn5)c5ccccc45)nc(C(C)C)n23)CC1 (centres unmarked) [Example 68, 2-(4-(8-amino-3-isopropyl-5-(4-(methylamino)cyclohex-1-en-1-yl)imidazo[1,5-a]pyrazin-1-yl)naphthalen-1-yl)-N-(pyridin-2-yl)acetamide] has an IC50 of 430 nM.
In the case of CNC1CC=C(c2cnc(N)c3c(-c4ccc(NC(=O)Nc5cc(F)cc(F)c5)c5ccccc45)nc(C(C)C)n23)CC1 (centres unmarked) [Example 151, 1-(4-(8-amino-3-isopropyl-5-(4-(methylamino)cyclohex-1-en-1-yl)imidazo[1,5-a]pyrazin-1-yl)naphthalen-1-yl)-3-(3,5-difluorophenyl)urea], the IC50 is reported as 60 nM.
With CNC1CC=C(c2cnc(N)c3c(-c4ccc(NC(=O)Nc5cccnc5)c5ccccc45)nc(C)n23)CC1 (centres unmarked) [Example 147, 1-(4-(8-amino-3-methyl-5-(4-(methylamino)cyclohex-1-en-1-yl)imidazo[1,5-a]pyrazin-1-yl)naphthalen-1-yl)-3-(pyridin-3-yl)urea] the IC50 was 3100 nM.
Work on CNC1CC=C(c2cnc(N)c3c(-c4ccc(Cc5nc6cccc(C)c6[nH]5)c5ccccc45)nc(C(C)C)n23)CC1 (centres unmarked) [Example 156, 3-Isopropyl-1-(4-((7-methyl-1H-benzo[d]imidazol-2-yl)methyl)naphthalen-1-yl)-5-(4-(methylamino)cyclohex-1-en-1-yl)imidazo[1,5-a]pyrazin-8-amine] yielded an IC50 of 16 nM.
CNC1CC=C(c2cnc(N)c3c(-c4ccc(NC(=O)Nc5cccc(C#N)c5)c5ccccc45)nc(C(C)C)n23)CC1 (centres unmarked) [Example 142, 1-(4-(8-amino-3-isopropyl-5-(4-(methylamino)cyclohex-1-en-1-yl)imidazo[1,5-a]pyrazin-1-yl)naphthalen-1-yl)-3-(3-cyanophenyl)urea] gave an IC50 of 94 nM.
CC(C)c1nc(-c2ccc(NS(=O)(=O)Cc3ccccc3Cl)c(F)c2)c2c(N)ncc(CN3CCNCC3)n12 [Example 36, N-(4-(8-amino-3-isopropyl-5-(piperazin-1-ylmethyl)imidazo[1,5-a]pyrazin-1-yl)-2-fluorophenyl)-1-(2-chlorophenyl)methanesulfonamide] was tested, and the IC50 was 1530 nM.
CNC1CC=C(c2cnc(N)c3c(-c4ccc(NS(=O)(=O)Cc5ccccc5Cl)c(F)c4)nc(C(C)C)n23)CC1 (centres unmarked) [Example 169, N-(4-(8-Amino-3-isopropyl-5-(4-(methylamino)cyclohex-1-en-1-yl)imidazo[1,5-a]pyrazin-1-yl)-2-fluorophenyl)-1-(2-chlorophenyl)methanesulfonamide] showed an IC50 of 31 nM.
CNC1CC=C(c2cnc(N)c3c(-c4ccc(NS(=O)(=O)c5cc(C)ccc5F)c(F)c4)nc(C(C)C)n23)CC1 (centres unmarked) [Example 218, N-(4-{8-amino-5-[4-(methylamino)cyclohex-1-en-1-yl]-3-(propan-2-yl)imidazo[1,5-a]pyrazin-1-yl}-2-fluorophenyl)-2-fluoro-5-methylbenzene-1-sulfonamide] was tested, and the IC50 was 25 nM.
For CNC1CC=C(c2cnc(N)c3c(-c4ccc(NC(=O)Nc5ccccc5)c5ccccc45)nc(C(C)C)n23)CC1 (centres unmarked) [Example 121, 1-(4-(8-Amino-3-isopropyl-5-(4-(methylamino)cyclohex-1-en-1-yl)imidazo[1,5-a]pyrazin-1-yl)naphthalen-1-yl)-3-phenylurea], the IC50 was 89 nM.
CNC1CC=C(c2cnc(N)c3c(-c4ccc(CC(=O)Nc5cncc(OC)c5)c5ccccc45)nc(C(C)C)n23)CC1 (centres unmarked) [Example 69, 2-(4-(8-amino-3-isopropyl-5-(4-(methylamino)cyclohex-1-en-1-yl)imidazo[1,5-a]pyrazin-1-yl)naphthalen-1-yl)-N-(5-methoxypyridin-3-yl)acetamide] was tested, and the IC50 was 350 nM.
Compound CNC1CC=C(c2cnc(N)c3c(-c4ccc(NC(=O)Nc5cccc(OC)c5)c5ccccc45)nc(C(C)C)n23)CC1 (centres unmarked) [Example 141, 1-(4-(8-amino-3-isopropyl-5-(4-(methylamino)cyclohex-1-en-1-yl)imidazo[1,5-a]pyrazin-1-yl)naphthalen-1-yl)-3-(3-methoxyphenyl)urea] has an IC50 of 59 nM.
For CNC1CC=C(c2cncc3c(-c4ccc(NC(=O)Nc5ccccc5)c5ccccc45)nc(C(C)C)n23)CC1 (centres unmarked) [Example 155, 1-(4-(3-isopropyl-5-(4-(methylamino)cyclohex-1-en-1-yl)imidazo[1,5-a]pyrazin-1-yl)naphthalen-1-yl)-3-phenylurea], the IC50 was 640 nM.
CNC1CC=C(c2cnc(N)c3c(-c4ccc(NC(=O)Nc5ccc(F)cc5)c5ccccc45)nc(C(C)C)n23)CC1 (centres unmarked) [Example 145, 1-(4-(8-amino-3-isopropyl-5-(4-(methylamino)cyclohex-1-en-1-yl)imidazo[1,5-a]pyrazin-1-yl)naphthalen-1-yl)-3-(4-fluorophenyl)urea] was tested, and the IC50 was 74 nM.
CNC1CC=C(c2cnc(N)c3c(-c4ccc(NS(=O)(=O)c5cc(C)ccc5F)c5ccccc45)nc(C(C)C)n23)CC1 (centres unmarked) [Example 185, N-(4-(8-amino-3-isopropyl-5-(4-(methylamino)cyclohex-1-en-1-yl)imidazo[1,5-a]pyrazin-1-yl)naphthalen-1-yl)-2-fluoro-5-methylbenzenesulfonamide] gave an IC50 of 210 nM.
Work on CNC1CC=C(c2cnc(N)c3c(-c4cccc5c(CC(=O)Nc6ccccc6)cccc45)nc(C(C)C)n23)CC1 (centres unmarked) [Example 82, 2-(5-(8-amino-3-isopropyl-5-(4-(methylamino)cyclohex-1-en-1-yl)imidazo[1,5-a]pyrazin-1-yl)naphthalen-1-yl)-N-phenylacetamide] yielded an IC50 of 400 nM.
CNC1CC=C(c2cnc(N)c3c(-c4ccc(NC(=O)Nc5ccccc5F)c5ccccc45)nc(C(C)C)n23)CC1 (centres unmarked) [Example 152, 1-(4-(8-amino-3-isopropyl-5-(4-(methylamino)cyclohex-1-en-1-yl)imidazo[1,5-a]pyrazin-1-yl)naphthalen-1-yl)-3-(2-fluorophenyl)urea] gave an IC50 of 100 nM.
In the case of CNC1CC=C(c2cnc(N)c3c(-c4ccc(NS(=O)(=O)c5cc(Cl)ccc5Cl)cc4F)nc(C(C)C)n23)CC1 (centres unmarked) [Example 195, N-(4-(8-amino-3-isopropyl-5-(4-(methylamino)cyclohex-1-en-1-yl)imidazo[1,5-a]pyrazin-1-yl)-3-fluorophenyl)-2,5-dichlorobenzenesulfonamide], the IC50 is reported as 66 nM.
In the case of CNC1CC=C(c2cnc(N)c3c(-c4ccc(NC(=O)Nc5cncc(OC)c5)cc4F)nc(C(C)C)n23)CC1 (centres unmarked) [Example 148, 1-(4-(8-amino-3-isopropyl-5-(4-(methylamino)cyclohex-1-en-1-yl)imidazo[1,5-a]pyrazin-1-yl)-3-fluorophenyl)-3-(5-methoxypyridin-3-yl)urea], the IC50 is reported as 1300 nM.
CNC1CC=C(c2cnc(N)c3c(-c4ccc(NC(=O)Nc5cncc(F)c5)cc4F)nc(C(C)C)n23)CC1 (centres unmarked) [Example 149, 1-(4-(8-amino-3-isopropyl-5-(4-(methylamino)cyclohex-1-en-1-yl)imidazo[1,5-a]pyrazin-1-yl)-3-fluorophenyl)-3-(5-fluoropyridin-3-yl)urea] was tested, and the IC50 was 780 nM.
With CC(C)c1nc(-c2ccc(NS(=O)(=O)c3ccccc3Cl)c(F)c2)c2c(N)ncc(C3=CCC(O)CC3)n12 (centres unmarked) [Example 225, N-(4-(8-amino-5-(4-hydroxycyclohex-1-en-1-yl)-3-isopropylimidazo[1,5-a]pyrazin-1-yl)-2-fluorophenyl)-2-chlorobenzenesulfonamide] the IC50 was 250 nM.
With CCc1nc(-c2ccc(NC(=O)Nc3cccc(C(F)(F)F)c3)c3ccccc23)c2c(N)ncc(CN3CCNCC3)n12 [Example 20, 3-{4-[8-amino-3-ethyl-5-(piperazin-1-ylmethyl)imidazo[1,5-a]pyrazin-1-yl]naphthalen-1-yl}-1-[3-(trifluoromethyl)phenyl]urea] the IC50 was 470 nM.
